Test [1] addresses T1, rh-integrin α4β7/LPAM-1 (Homo sapiens, UniProt P13612+P26010).
T1 sequence (P13612 34-977 limits assumed): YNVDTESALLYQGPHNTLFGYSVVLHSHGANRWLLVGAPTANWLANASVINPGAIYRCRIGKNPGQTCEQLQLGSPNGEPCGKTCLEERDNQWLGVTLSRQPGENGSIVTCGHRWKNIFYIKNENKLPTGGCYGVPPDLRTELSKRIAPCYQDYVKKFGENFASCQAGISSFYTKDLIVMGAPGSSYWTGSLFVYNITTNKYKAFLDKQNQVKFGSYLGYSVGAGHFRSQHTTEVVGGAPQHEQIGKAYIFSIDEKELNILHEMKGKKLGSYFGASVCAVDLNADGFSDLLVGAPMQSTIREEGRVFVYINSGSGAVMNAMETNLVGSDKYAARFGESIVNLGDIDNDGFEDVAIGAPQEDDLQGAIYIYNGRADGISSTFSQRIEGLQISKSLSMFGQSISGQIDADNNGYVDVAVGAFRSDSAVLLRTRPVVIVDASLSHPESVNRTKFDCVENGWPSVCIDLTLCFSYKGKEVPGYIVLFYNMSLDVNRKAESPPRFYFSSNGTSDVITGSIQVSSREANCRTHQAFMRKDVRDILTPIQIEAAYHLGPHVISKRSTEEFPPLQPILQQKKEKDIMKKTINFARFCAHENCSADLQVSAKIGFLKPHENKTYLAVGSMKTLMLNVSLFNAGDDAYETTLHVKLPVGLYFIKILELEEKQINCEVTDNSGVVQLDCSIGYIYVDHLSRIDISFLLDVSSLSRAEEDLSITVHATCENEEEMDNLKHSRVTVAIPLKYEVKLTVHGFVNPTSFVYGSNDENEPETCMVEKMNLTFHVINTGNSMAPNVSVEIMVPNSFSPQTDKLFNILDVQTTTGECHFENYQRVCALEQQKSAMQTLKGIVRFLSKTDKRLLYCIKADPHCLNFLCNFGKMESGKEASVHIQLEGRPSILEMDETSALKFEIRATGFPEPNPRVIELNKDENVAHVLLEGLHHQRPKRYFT
T1 sequence (P26010 20-723 limits assumed): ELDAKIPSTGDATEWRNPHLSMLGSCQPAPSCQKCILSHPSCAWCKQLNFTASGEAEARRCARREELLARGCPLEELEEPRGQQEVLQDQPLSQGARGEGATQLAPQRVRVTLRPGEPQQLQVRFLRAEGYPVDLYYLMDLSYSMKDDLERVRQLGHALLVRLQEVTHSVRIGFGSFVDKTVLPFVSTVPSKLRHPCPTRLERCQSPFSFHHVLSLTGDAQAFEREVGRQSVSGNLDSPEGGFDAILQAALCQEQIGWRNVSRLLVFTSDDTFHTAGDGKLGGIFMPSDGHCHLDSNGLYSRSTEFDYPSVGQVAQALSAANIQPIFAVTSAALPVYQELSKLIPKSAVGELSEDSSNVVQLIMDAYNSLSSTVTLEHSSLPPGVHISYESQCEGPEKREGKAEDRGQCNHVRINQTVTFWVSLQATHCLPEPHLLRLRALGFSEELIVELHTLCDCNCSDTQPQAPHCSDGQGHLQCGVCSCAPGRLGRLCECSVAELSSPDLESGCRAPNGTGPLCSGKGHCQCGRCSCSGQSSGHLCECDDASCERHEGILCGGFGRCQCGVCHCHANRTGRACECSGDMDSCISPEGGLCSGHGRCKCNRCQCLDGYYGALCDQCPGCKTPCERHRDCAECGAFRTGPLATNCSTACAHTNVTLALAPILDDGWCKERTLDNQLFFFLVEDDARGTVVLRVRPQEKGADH
In words: Competition Binding Assay (competition ELISA, Example 1). For orientation: In an ELISA, binding on a coated surface is turned into a signal by an enzyme label.

Test [2] concerns the target T1, rh-integrin α4β7/LPAM-1. The test is described as follows: α4β7-MadCAM Competition ELISA (Example 4). Conditions: IC50, competition ELISA, 4 μg/mL α4β7 coated, MAdCAM and peptide mixture, 28° C. The class given is binding. The procedure:
After washing with wash buffer, 200 μL assay buffer was added to each well and incubated for one hour at 28° C. After another wash with wash buffer, 100 μL of a MAdCAM and peptide mixture in assay buffer was added to each well and incubated for one hour at 28° C., followed by washing with wash buffer.

Broadly, the IC50 is the midpoint of a concentration-inhibition curve.

Numbered stars: 1 amine (or outer) side, 2 acyl side, 3 side chain; on linkers, the order of the positions; unused ones are H or OH. Bridge positions count the residues as written; N and C are the ends. Peptide text beside a SMILES is read from it. X3 = O=C(/C=N/OCCCCCCOc1cc(C[*:2])cc(C[*:3])c1)[*:1]; X2 = O=C(C=NOCc1cc(C[*:2])cc(C[*:3])c1)[*:1]

With `CC[C@H](C)[C@@H]1NC(=O)[C@H](CC(=O)O)NC(=O)[C@H](CCSC)NC(=O)[C@@H]2CCCN2C(=O)[C@@H]2CSCc3cc(cc(c3)OCCCCCCO/N=C/C(=O)N[C@@H](CCC(N)=O)C(=O)N2)CSC[C@@H](C(N)=O)NC(=O)[C@H]([C@@H](C)O)NC(=O)[C@@H]2CCCN2C1=O` [SEQ ID NO: 23] (QCPMDIPTC-NH2; linker N-2-9 via X3; C-terminus assumed), in test [1], the IC50 was 1.32 µM.
Consider `CC(C)C[C@@H]1NC(=O)[C@H]([C@@H](C)O)NC(=O)[C@H](CC(=O)O)NC(=O)[C@H](CO)NC(=O)[C@H](CCCNC(=N)N)NC(=O)[C@@H]2CSCc3cc(cc(c3)OCCCCCCO/N=C/C(=O)N[C@@H](C)C(=O)N2)CSC[C@@H](C(N)=O)NC1=O` [SEQ ID NO: 25] (ACRSDTLC-NH2; linker N-2-8 via X3; C-terminus assumed), for which, in test [1], the IC50 amounted to 79.8 µM.
On to `CC(C)C[C@@H]1NC(=O)[C@H]([C@@H](C)O)NC(=O)[C@H](CC(=O)O)NC(=O)[C@H](CO)NC(=O)[C@H](CCCNC(=N)N)NC(=O)[C@@H]2CSCc3cc(cc(c3)CSC[C@@H](C(=O)O)NC1=O)CON=CC(=O)N[C@@H](C)C(=O)N2` [SEQ ID NO: 70] (ACRSDTLC-OH; linker N-2-8 via X2), for which the IC50 in test [2] and in test [1] was 111 µM each time.

The values above are taken from patent US20230145835A1, “Modulators of Alpha-4-beta-7 Integrin and MAdCAM” (48HD Biopharma Inc., priority 2021, published 2023).
